Test results as given in patent US9050315B2, “In vivo and ex vivo expansion of hematopoietic stem cells with a targeted combination of clinically tested, FDA approved drugs” (The Trustees of the University of Pennsylvania, priority 2010, dated 2015).
“Also recorded” adds a separate entry of the source.

Legend:
c-Kit+ cells = assay: Colony formation assay in methylcellulose with hematopoietic cytokines; assay type: cell-based, mice; details: c-Kit+ cells treated 3 days ex vivo, then methylcellulose 10-14 days
Protocol: The primary cultures are shown.
Methylcellulose culture: Sorted GFP^+ BM cells were plated in individual wells of 6-well plates (Corning) containing 550 μl 1.0% methylcellulose (Stem Cell Technologies) as previously described (Trowbridge, et al., 2006, Nature. 441:518-522). The methylcellulose was supplemented with 1% penicillin/streptomycin (Gibco; Invitrogen), 50 ng/ml SCF, 10 ng/ml IL-3, 10 ng/ml IL-6, and 3 U/ml erythropoietin. Colonies were incubated at 37° C. in humidified incubators at 5% CO2. Colony formation was scored by counting all colonies of greater than 30 viable cells after 10-14 days of culture.
To test whether progenitor cells are increased by lithium treatment, colony formation assays were performed. […] To confirm these studies, bone marrow cells were isolated from lithium treated mice and cultured in methylcellulose with hematopoietic cytokines.

LSK cells = details: cited from earlier work

Row | SMILES | hematopoietic colony number (c-Kit+ cells) | overall marrow cellularity (LSK cells (HSCs/HPCs); mice treated 2 weeks, vs control) | number of LSK cells in bone marrow (LSK cells (HSCs/HPCs); mice treated 2 weeks, vs control (NaCl for lithium), FCM) | bone marrow morphology / architecture (LSK cells (HSCs/HPCs); treated versus control marrows) | HSCs measured by long-term competitive repopulation assay (LSK cells; mice, Goessling et al. 2009) | increase in LSK cells (LSK cells; treated mice, Trowbridge et al. 2006)
1 | O=C1Nc2cc(Br)ccc2/C1=C1/Nc2ccccc2/C1=N\O [6BIO, 6-bromo-indirubin 3′-oxime] | marked increase; also recorded: increased | increased marrow cellularity; also recorded: parallel increase | pronounced increase; also recorded: increased | no observable change | increases HSCs | 
2 | COc1ccc(CNC(=O)Nc2ncc([N+](=O)[O-])s2)cc1 [AR-A014418] | marked increase; also recorded: increased |  |  |  |  | 
3 | Cc1c[nH]c(-c2cnc(NCCNc3ccc(C#N)cn3)nc2-c2ccc(Cl)cc2Cl)n1 [CHIR-911] |  |  |  |  |  | approximately 50%
